Experiments:
[1] = test system: cerebellar granule neurons; experiment: Glutamate-induced damage of cerebellar granule neurons (FDA staining); format: cell-based; conditions: glutamate 100 μM, glycine 10 μM, Mg2+-free Locke buffer; 30 min pre-incubation; FDA staining after 24 h
Description: Cerebellar granule neurons cultured in vitro for 8 days were grouped. Treatment groups received MK801 or YC-10 at various concentrations, followed by incubation for 30 min. Following that, model group and all treatment groups were replaced with Mg^2+-free Locke buffer, and added with glutamate (100 μM final concentration), Glycine (10 μM final concentration) and drugs at respective concentrations. Cells were incubated at 37° C. for 30 minutes, replaced with original medium, incubated for further 24 h, followed by FDA staining.

LN18 cells = experiment: MTT cell survival assay, LN18 cells; format: cell-based; conditions: 250, 500, 1000 μM, 24 h post treatment, P<0.05 vs control
Description: (§1) Cell seeding and treatment: Logarithmic phase of LN18 and DBTRG-50MG cells were prepared to cell suspensions with complete medium. Cells were seeded into a 96-well plate at a density of 100 μl per well, 3×10^4/ml. 12 h post seeding, full cell adherence was observed. To the wells was added YC-10 to a final concentration of YC-10 being 250, 500, and 1000 μM, with each concentration group having 5 repeats.
(§2) Reaction of MTT with succinate dehydrogenase: At 24th h of culturing, 10 μl (5 mg/ml) of MTT was added to each well, followed by 4 h incubation. At this time, granulate violet formazan crystalline can be observed in live cells by microscopy.
(§3) Formazan particle dissolution: Supernatant was carefully discharged. To the wells was added DMSO at 100 μl/well to dissolve the crystalline. The mixture was vibrated on a mini oscillator for 5 min and measured for optical density (OD value) at 570 nm for each well by enzyme-linked immunometric assay.
(§4) Each group of experiments was repeated 3 times.
(§5) Survival (%)=OD value in treatment group/OD value in control group*100%.
(§6) All data was presented as mean±SD. SPSS 13.0 statistics package software was used. One-Way ANOVA and t-test were used to analyze the data. Sigmaplot software was used to give FIG. 1.

DBTRG-50MG cells = experiment: MTT cell survival assay, DBTRG-50MG cells; format: cell-based; conditions: 250, 500, 1000 μM, 24 h post treatment, P<0.05 vs control
Description: as §1, §2, §3, §4, §5, §6

KM mice = experiment: Maximal tolerance dose test; format: in vivo
Description: YC-10 injections at concentration of 25 mg/mL were prepared with 40% hydroxypropyl cyclodextrin, and were injected through tail vein to 30 KM mice (half males and half females, weighted 18-22 g) at does of 0.1 mL/10 g.
The mice were continuously observed. All mice behaved and ate as usual, with bright coat color and fine fur. No abnormal secretions in mouth, eyes, nose, or ears were observed. Mice defecated normally. Mice weights were slighted increase. No mice died. Mice were sacrificed after 14 days, dissected and visual examined on important organs such as heart, liver, spleen, kidney, and gastrointestinal. No abnormal changes were observed.

[2] = test system: cerebellar granule neurons; experiment: Low potassium-induced death of cerebellar granule neurons (FDA staining); format: cell-based; conditions: 50 μM, 5K (5 mM KCl) BME medium, 24 h
Description: Cerebellar granule neurons were cultured in vitro for 8 days. Treatment groups received YC-10 at various concentrations and incubated for 30 min. Following that, model group and all treatment groups were replaced with 5K (i.e., 5 mM KCl) BME medium (25K BME for control group), and added with YC-10 at respective concentrations. Cells were incubated at 37° C. for 24 h, followed by FDA staining.

retinal ganglion cell [3] = experiment: Optic nerve clamping injury model, retinal ganglion cell death; format: in vivo; conditions: rats; 20 mg/kg via tail vein 20 min before surgery, 2 h post operation, Day 2, Day 3; pathological examination at Day 7
Description: 10% chloral hydrate was used to anesthetize rats. YC-10 (20 mg/kg) or solvents were administered via tail vein 20 min before surgery. Eyes were subject to topical anesthesia. Conjunctiva was cut along limbus cornea with corneal scissors and intraocular microforceps. Lateral rectus was bluntly dissected to fully expose optic nerve. A cross action forceps was used to clamp the optic nerve for 5 seconds at 2 mm posterior to the eyeball, and then released. Antibiotic eye ointment was applied post operation to prevent infection. Drugs were administered at 2 h post operation, Day 2, and Day 3. Eyeballs were obtained for pathological examination at Day 7.

retinal ganglion cell [4] = experiment: Eye high pressure and ischemia injury model, retinal ganglion cell death; format: in vivo; conditions: rats; 20 mg/kg via tail vein before modeling, 2 h, Day 2, Day 3; 130 mmHg, 1 h ischemia; pathological examination at Day 7
Description: 10% chloral hydrate was used to anesthetize rats. Eyes were subject to topical anesthesia. Perfusion apparatus was placed 176 cm above rats' eyeballs (resulting in 130 mmHg intra-ocular pressure). 30 G ½ syringe needle was carefully inserted into anterior chamber. The eyeballs became white and starting time of ischemia was recorded. 1 h post ischemia, the syringe needle was quickly withdrawn and eyes were cared by antibiotic eyedrops. Rats were raised back to cage. Drugs were administered 20 before modeling for solvent group and YC-10 group (20 mg/kg). At 2 h, Day 2 and Day 3 post modeling, rats were treated with YC-10 via tail vein. At Day 7 post modeling, eyeballs were obtained for pathological examination.

Structure (SMILES)	protection of cerebellar granule neurons from glutamate-induced damage [1]	cell survival rate (tumor cell killing) (LN18 cells)	cell survival rate (tumor cell killing) (DBTRG-50MG cells)	toxicity to mouse (behaviour, weight, organ examination) (KM mice; 250 mg/kg tail vein injection in 40% hydroxypropyl cyclodextrin, observed 14 days)	mortality (KM mice; 250 mg/kg tail vein injection, 14 days)	protection of cerebellar granule neurons from low potassium-induced death [2]	protection of retinal ganglion cell from optic nerve clamping injury-induced death (retinal ganglion cell [3])	protection of retinal ganglion cell from eye high pressure and ischemia-induced death (retinal ganglion cell [4])
C[C@]12N[C@H](Cc3ccccc31)c1ccccc12 [MK801, reference compound]	able to prevent cerebella granule neurons from glutamate-induced injury	–	–	–	–	–	–	–
C[C@@]12CCCC1C1CC(=O)[C@@]3(O)C[C@H](O)[C@@H](O)C[C@]3(C)C1CC2 (stereo partly drawn) [YC-10, 2β,3α,5α-trihydroxy-androst-6-one]	effective in preventing glutamate-induced excitotoxin damage of cerebellar granule neurons in a dose-dependent manner	killed tumor cells in a dose-dependent manner	killed tumor cells in a dose-dependent manner	nontoxic	No mice died	could prevent neuron from low potassium-induced death	slow down or prevent from clamping injury-induced death	reduce or prevent from ischemia-induced death

Source: patent publication US9428539B2, “2β,3α,5α-trihydroxy-androst-6-one and preparation methods and use thereof” (Guangzhou Cellprotek Pharmaceutical Co., Ltd., priority 2013, dated 2016)
